From BindingDB's records for PubMed 1874734 (Laboratoires Glaxo, 1991)

Biological target: cAMP-dependent protein kinase catalytic subunit alpha (Rattus norvegicus, UniProt P27791)
Assay: PKA assay

Row | Compound | IC50 [nM]
1 | CN1CCCC1CCn1cc(C2=C(c3c[nH]c4ccccc34)C(=O)NC2=O)c2ccccc21 (configuration not stated) [3-(1H-indol-3-yl)-4-{1-[2-(1-methylpyrrolidin-2-yl)ethyl]-1H-indol-3-yl}-2,5-dihydro-1H-pyrrole-2,5-dione] | 2000
2 | CN(C)CCCn1cc(C2=C(c3c[nH]c4ccccc34)CNC2=O)c2ccccc21 [3-[1-(3-dymethylaminopropyl)-indol-3-yl]-4-(indol-3-yl)-3-pyrrolin-2-one] | > 10000
